Key:
[1] = molecular target: Serine/threonine-protein kinase BRSK2 (Homo sapiens) (UniProt Q8IWQ3); assay: Inhibition of human BrSK2 assessed as enzyme activity at 1 uM relative to control; design: scale not given: the % may be the effect or the level left
[2] = molecular target: Protein-tyrosine kinase 2-beta (Homo sapiens) (UniProt Q14289); assay: Inhibition of human FAK2 assessed as enzyme activity at 1 uM relative to control; design: scale not given: the % may be the effect or the level left
Chain of Protein-tyrosine kinase 2-beta (Homo sapiens) (Q14289 whole entry, looked up): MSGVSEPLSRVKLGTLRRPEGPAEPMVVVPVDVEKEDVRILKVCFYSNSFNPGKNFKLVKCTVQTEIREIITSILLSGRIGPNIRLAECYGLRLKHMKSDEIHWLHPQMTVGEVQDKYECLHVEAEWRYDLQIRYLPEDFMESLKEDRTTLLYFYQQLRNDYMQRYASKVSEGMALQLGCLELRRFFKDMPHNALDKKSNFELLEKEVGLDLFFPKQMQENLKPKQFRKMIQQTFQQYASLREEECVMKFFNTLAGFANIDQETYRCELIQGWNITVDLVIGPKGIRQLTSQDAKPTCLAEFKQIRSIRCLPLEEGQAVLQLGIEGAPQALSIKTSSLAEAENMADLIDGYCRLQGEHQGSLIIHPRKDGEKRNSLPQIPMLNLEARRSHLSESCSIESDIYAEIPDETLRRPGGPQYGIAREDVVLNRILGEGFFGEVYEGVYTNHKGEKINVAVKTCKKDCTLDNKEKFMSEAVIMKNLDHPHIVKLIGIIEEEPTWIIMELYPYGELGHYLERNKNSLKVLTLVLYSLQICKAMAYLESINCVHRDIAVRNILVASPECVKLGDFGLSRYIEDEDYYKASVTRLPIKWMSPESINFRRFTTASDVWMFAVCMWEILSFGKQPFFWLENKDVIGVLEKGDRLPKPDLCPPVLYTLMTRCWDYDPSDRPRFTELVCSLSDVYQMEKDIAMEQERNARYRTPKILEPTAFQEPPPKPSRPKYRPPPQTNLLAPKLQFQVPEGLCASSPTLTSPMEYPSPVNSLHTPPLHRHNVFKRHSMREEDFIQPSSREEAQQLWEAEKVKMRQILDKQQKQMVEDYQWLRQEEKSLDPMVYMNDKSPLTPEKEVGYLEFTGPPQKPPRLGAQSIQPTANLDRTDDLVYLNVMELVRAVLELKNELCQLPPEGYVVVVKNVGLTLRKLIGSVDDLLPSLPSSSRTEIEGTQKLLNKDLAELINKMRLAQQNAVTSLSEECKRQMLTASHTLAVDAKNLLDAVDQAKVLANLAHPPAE

[3] = molecular target: Serine/threonine-protein kinase Chk1 (Homo sapiens) (UniProt O14757); assay: Inhibition of human CHK1 assessed as enzyme activity at 1 uM relative to control; design: scale not given: the % may be the effect or the level left
Sus scrofa = organism: Sus scrofa; assay: Inhibition of […] pig Abl assessed as enzyme activity at 1 uM relative to control; design: scale not given: the % may be the effect or the level left
[4] = molecular target: Serine/threonine-protein kinase DCLK2 (Homo sapiens) (UniProt Q8N568); assay: Inhibition of human DCAMKL2 assessed as enzyme activity at 1 uM relative to control; design: scale not given: the % may be the effect or the level left
[5] = molecular target: Serine/threonine-protein kinase SIK1 (Homo sapiens) (UniProt P57059); assay: Inhibition of human SIK assessed as enzyme activity at 1 uM relative to control; design: scale not given: the % may be the effect or the level left
[6] = molecular target: Myosin light chain kinase, smooth muscle (Homo sapiens) (UniProt Q15746); assay: Inhibition of human MYLK assessed as enzyme activity at 1 uM relative to control; design: scale not given: the % may be the effect or the level left
[7] = molecular target: cAMP-dependent protein kinase catalytic subunit alpha (Homo sapiens) (UniProt P17612); assay: Inhibition of human PKAC-alpha assessed as enzyme activity at 1 uM relative to control; design: scale not given: the % may be the effect or the level left
[8] = molecular target: Serine/threonine-protein kinase pim-3 (Homo sapiens) (UniProt Q86V86); assay: Inhibition of human Pim-3 assessed as enzyme activity at 1 uM relative to control; design: scale not given: the % may be the effect or the level left
[9] = molecular target: Serine/threonine-protein kinase B-raf (Homo sapiens, UniProt P15056, V600E); assay: Inhibition of B-Raf V600E mutant in human Malme-3M cells assessed as basal ERK phosphorylation; format: cell-based
[10] = molecular target: Mitogen-activated protein kinase 14 (Homo sapiens) (UniProt Q16539); assay: Inhibition of human p38alpha assessed as enzyme activity at 1 uM relative to control; design: scale not given: the % may be the effect or the level left
[11] = molecular target: LIM domain kinase 1 (Homo sapiens) (UniProt P53667); assay: Inhibition of human LIMK1 assessed as enzyme activity at 1 uM relative to control; design: scale not given: the % may be the effect or the level left
[12] = molecular target: Mitogen-activated protein kinase kinase kinase 9 (Homo sapiens) (UniProt P80192); assay: Inhibition of human MLK1 assessed as enzyme activity at 1 uM relative to control; design: scale not given: the % may be the effect or the level left
[13] = molecular target: Serine/threonine-protein kinase pim-1 (Homo sapiens) (UniProt P11309); assay: Inhibition of human Pim-1 assessed as enzyme activity at 1 uM relative to control; design: scale not given: the % may be the effect or the level left
[14] = molecular target: Dual specificity mitogen-activated protein kinase kinase 6 (Homo sapiens) (UniProt P52564); assay: Inhibition of human MKK6 assessed as enzyme activity at 1 uM relative to control; design: scale not given: the % may be the effect or the level left
[15] = molecular target: Proto-oncogene tyrosine-protein kinase receptor Ret (Homo sapiens) (UniProt P07949); assay: Inhibition of human Ret assessed as enzyme activity at 1 uM relative to control; design: scale not given: the % may be the effect or the level left
[16] = molecular target: Dual specificity mitogen-activated protein kinase kinase 4 (Mus musculus) (UniProt P47809); assay: Inhibition of mouse MKK4 assessed as enzyme activity at 1 uM relative to control; design: scale not given: the % may be the effect or the level left
[17] = molecular target: Glycogen synthase kinase-3 alpha (Homo sapiens) (UniProt P49840); assay: Inhibition of human GSK3alpha assessed as enzyme activity at 1 uM relative to control; design: scale not given: the % may be the effect or the level left
Chain of Glycogen synthase kinase-3 alpha (Homo sapiens) (P49840 2-483 limits assumed): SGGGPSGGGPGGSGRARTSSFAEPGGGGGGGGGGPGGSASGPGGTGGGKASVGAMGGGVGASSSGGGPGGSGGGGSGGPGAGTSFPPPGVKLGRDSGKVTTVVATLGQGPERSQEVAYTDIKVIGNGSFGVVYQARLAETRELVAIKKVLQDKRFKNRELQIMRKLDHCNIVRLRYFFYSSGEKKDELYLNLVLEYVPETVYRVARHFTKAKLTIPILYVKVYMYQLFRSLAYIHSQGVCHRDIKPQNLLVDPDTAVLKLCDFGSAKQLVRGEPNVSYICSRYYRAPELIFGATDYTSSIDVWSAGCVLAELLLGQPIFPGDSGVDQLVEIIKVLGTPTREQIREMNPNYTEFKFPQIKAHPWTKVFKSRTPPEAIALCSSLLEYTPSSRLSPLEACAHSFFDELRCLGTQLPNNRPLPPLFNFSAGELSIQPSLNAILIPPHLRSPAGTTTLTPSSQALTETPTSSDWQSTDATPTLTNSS

[18] = molecular target: Cyclin-dependent kinase 5/CDK5 activator 1 (Homo sapiens) (UniProt Q00535+Q15078); assay: Inhibition of human CDK5/p35 assessed as enzyme activity at 1 uM relative to control; format: protein-complex assay; design: scale not given: the % may be the effect or the level left
Chain of Cyclin-dependent kinase 5/CDK5 activator 1 (Homo sapiens) (Q00535 whole entry): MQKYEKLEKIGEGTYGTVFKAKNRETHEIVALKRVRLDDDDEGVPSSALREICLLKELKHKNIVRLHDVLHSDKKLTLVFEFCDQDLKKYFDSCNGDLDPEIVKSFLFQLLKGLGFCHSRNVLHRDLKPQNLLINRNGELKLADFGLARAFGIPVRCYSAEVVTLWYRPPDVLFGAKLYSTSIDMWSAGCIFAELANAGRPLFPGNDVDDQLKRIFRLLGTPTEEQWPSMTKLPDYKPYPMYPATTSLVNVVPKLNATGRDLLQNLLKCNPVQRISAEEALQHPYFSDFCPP
Chain of Cyclin-dependent kinase 5/CDK5 activator 1 (Homo sapiens) (Q15078 99-307 partner limits assumed): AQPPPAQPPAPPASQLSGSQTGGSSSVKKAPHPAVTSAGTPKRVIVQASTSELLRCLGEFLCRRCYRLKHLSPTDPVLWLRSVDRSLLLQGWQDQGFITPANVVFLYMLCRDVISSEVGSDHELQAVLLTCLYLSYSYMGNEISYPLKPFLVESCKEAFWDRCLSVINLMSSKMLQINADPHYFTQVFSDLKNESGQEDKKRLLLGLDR

[19] = molecular target: Serine/threonine-protein kinase haspin (Homo sapiens) (UniProt Q8TF76); assay: Inhibition of human Haspin assessed as enzyme activity at 1 uM relative to control; design: scale not given: the % may be the effect or the level left
[20] = molecular target: Tyrosine-protein kinase FRK (Homo sapiens) (UniProt P42685); assay: Inhibition of human PTK5 assessed as enzyme activity at 1 uM relative to control; design: scale not given: the % may be the effect or the level left
[21] = molecular target: Serine/threonine-protein kinase PAK 5 (Homo sapiens) (UniProt Q9P286); assay: Inhibition of human PAK5 assessed as enzyme activity at 1 uM relative to control; design: scale not given: the % may be the effect or the level left
Saccharomyces cerevisiae = assay: Inhibition of yeast CK1 assessed as enzyme activity at 1 uM relative to control; design: scale not given: the % may be the effect or the level left
[22] = Apparent permeability of the compound from apical to basolateral direction in pig LLC-PK1 cells; format: ADME, cell-based, Sus scrofa
[23] = molecular target: Serine/threonine-protein kinase PAK 4 (Homo sapiens) (UniProt O96013); assay: Inhibition of human PAK4 assessed as enzyme activity at 1 uM relative to control; design: scale not given: the % may be the effect or the level left
Chain of Serine/threonine-protein kinase PAK 4 (Homo sapiens) (O96013 whole entry, looked up): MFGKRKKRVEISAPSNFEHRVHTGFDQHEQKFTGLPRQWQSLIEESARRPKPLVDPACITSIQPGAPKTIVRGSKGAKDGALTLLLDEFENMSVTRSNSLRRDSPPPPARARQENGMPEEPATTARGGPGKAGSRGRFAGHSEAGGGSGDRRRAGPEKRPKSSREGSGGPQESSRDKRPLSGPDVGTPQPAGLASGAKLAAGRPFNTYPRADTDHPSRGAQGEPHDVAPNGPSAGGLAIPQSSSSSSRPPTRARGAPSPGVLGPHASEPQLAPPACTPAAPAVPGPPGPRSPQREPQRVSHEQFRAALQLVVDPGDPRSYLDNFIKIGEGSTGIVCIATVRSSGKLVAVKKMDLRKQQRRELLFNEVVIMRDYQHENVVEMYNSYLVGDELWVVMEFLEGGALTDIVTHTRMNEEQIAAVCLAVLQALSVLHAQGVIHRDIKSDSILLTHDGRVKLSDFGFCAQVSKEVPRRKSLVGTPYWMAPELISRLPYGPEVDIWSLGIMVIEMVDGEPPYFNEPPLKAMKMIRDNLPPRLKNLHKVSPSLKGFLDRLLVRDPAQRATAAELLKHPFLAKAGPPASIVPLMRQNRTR

[24] = molecular target: Eukaryotic elongation factor 2 kinase (Homo sapiens) (UniProt O00418); assay: Inhibition of human eEF-2K assessed as enzyme activity at 1 uM relative to control; design: scale not given: the % may be the effect or the level left
[25] = molecular target: Serine/threonine-protein kinase 24 (Homo sapiens) (UniProt Q9Y6E0); assay: Inhibition of human MST3 assessed as enzyme activity at 1 uM relative to control; design: scale not given: the % may be the effect or the level left
[26] = molecular target: RAC-alpha serine/threonine-protein kinase (Homo sapiens) (UniProt P31749); assay: Inhibition of human AKT1 assessed as enzyme activity at 1 uM relative to control; design: scale not given: the % may be the effect or the level left
[27] = molecular target: Serine/threonine-protein kinase VRK2 (Homo sapiens) (UniProt Q86Y07); assay: Inhibition of human VRK2 assessed as enzyme activity at 1 uM relative to control; design: scale not given: the % may be the effect or the level left
[28] = molecular target: Serine/threonine-protein kinase 4 (Homo sapiens) (UniProt Q13043); assay: Inhibition of human MST1 assessed as enzyme activity at 1 uM relative to control; design: scale not given: the % may be the effect or the level left
[29] = molecular target: Aurora kinase A (Homo sapiens) (UniProt O14965); assay: Inhibition of human AURKA assessed as enzyme activity at 1 uM relative to control; design: scale not given: the % may be the effect or the level left
[30] = molecular target: Tyrosine-protein kinase Blk (Homo sapiens) (UniProt P51451); assay: Inhibition of human BLK assessed as enzyme activity at 1 uM relative to control; design: scale not given: the % may be the effect or the level left
Chain of Tyrosine-protein kinase Blk (Homo sapiens) (P51451 2-505 limits assumed): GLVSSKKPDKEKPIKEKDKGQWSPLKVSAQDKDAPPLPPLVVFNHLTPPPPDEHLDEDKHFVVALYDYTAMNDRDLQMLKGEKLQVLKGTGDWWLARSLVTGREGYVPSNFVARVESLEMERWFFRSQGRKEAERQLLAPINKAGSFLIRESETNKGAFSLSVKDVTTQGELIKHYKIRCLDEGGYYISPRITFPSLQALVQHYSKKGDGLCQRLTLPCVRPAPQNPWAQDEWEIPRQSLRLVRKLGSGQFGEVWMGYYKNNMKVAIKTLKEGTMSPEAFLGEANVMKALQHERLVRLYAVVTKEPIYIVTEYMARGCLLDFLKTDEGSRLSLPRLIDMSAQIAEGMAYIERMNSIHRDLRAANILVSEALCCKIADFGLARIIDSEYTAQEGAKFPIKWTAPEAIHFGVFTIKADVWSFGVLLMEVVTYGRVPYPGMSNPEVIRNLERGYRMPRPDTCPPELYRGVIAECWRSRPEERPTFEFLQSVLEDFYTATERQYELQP

[31] = molecular target: Homeodomain-interacting protein kinase 1 (Homo sapiens) (UniProt Q86Z02); assay: Inhibition of human HIPK1 assessed as enzyme activity at 1 uM relative to control; design: scale not given: the % may be the effect or the level left
[32] = molecular target: MAP kinase-activated protein kinase 2 (Homo sapiens) (UniProt P49137); assay: Inhibition of human MAPKAP-K2 assessed as enzyme activity at 1 uM relative to control; design: scale not given: the % may be the effect or the level left
[33] = molecular target: Macrophage colony-stimulating factor 1 receptor (Homo sapiens) (UniProt P07333); assay: Inhibition of human Fms assessed as enzyme activity at 1 uM relative to control; design: scale not given: the % may be the effect or the level left
[34] = molecular target: Mast/stem cell growth factor receptor Kit (Homo sapiens) (UniProt P10721); assay: Inhibition of human KIT assessed as enzyme activity at 1 uM relative to control; design: scale not given: the % may be the effect or the level left
[35] = molecular target: Mitogen-activated protein kinase 10 (Homo sapiens) (UniProt P53779); assay: Inhibition of human JNK3 assessed as enzyme activity at 1 uM relative to control; design: scale not given: the % may be the effect or the level left
[36] = molecular target: SRSF protein kinase 2 (Homo sapiens) (UniProt P78362); assay: Inhibition of human SRPK2 assessed as enzyme activity at 1 uM relative to control; design: scale not given: the % may be the effect or the level left
Chain of SRSF protein kinase 2 (Homo sapiens) (P78362 whole entry, looked up): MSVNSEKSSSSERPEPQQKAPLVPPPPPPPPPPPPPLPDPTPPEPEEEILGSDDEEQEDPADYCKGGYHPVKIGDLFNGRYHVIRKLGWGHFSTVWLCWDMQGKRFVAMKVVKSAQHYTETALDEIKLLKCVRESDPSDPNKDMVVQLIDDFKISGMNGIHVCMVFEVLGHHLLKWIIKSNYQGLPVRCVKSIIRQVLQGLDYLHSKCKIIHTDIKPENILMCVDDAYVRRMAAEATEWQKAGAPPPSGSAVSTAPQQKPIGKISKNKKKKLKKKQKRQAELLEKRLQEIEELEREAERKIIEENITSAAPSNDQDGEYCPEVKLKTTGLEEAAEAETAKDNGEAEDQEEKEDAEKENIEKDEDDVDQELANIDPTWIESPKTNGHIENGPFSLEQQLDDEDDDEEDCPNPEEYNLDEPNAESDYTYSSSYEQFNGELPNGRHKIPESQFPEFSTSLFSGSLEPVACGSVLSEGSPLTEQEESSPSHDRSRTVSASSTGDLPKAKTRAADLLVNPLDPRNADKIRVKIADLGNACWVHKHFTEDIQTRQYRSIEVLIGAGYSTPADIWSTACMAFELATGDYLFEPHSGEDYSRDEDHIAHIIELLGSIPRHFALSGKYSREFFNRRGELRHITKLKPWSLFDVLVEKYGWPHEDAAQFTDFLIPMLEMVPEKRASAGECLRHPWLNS

[37] = molecular target: Serine/threonine-protein kinase TAO3 (Homo sapiens) (UniProt Q9H2K8); assay: Inhibition of human TAO3 assessed as enzyme activity at 1 uM relative to control; design: scale not given: the % may be the effect or the level left

Chain of Serine/threonine-protein kinase BRSK2 (Homo sapiens) (Q8IWQ3 whole entry): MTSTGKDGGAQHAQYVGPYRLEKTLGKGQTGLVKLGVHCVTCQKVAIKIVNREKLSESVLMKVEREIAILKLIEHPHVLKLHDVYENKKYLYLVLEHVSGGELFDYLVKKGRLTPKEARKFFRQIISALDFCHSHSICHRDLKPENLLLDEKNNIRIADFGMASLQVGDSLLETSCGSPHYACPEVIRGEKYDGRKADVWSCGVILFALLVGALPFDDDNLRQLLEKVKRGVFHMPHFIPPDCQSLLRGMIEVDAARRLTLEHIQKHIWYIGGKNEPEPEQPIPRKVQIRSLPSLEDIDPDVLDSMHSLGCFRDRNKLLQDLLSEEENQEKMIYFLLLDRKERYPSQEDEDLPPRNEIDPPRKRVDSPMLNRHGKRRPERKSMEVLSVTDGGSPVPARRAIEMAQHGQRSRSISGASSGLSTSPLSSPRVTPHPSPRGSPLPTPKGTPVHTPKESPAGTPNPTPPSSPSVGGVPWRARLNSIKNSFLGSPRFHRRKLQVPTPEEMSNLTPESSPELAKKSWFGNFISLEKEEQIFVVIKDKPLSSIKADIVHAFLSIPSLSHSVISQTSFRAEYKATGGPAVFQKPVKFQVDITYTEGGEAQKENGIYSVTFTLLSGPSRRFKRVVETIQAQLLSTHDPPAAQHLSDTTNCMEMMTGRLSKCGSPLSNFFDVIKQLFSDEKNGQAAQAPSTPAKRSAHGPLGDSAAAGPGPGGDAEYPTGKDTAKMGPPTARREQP

CCCS(=O)(=O)Nc1cccc(Nc2ccc3ncn(C)c(=O)c3c2)c1C#N
Activity [1]: 100% | Activity [2]: 85.5% | Activity [3]: 106% | Activity (Sus scrofa): 93% | Activity [4]: 148% | Activity [5]: 143% | Activity [6]: 106% | Activity [7]: 110% | Activity [8]: 97% | IC50 [9]: 6 nM | Activity [10]: 103% | Activity [11]: 85% | Activity [12]: 90% | Activity [13]: 147% | Activity [14]: 118% | Activity [15]: 98.5% | Activity [16]: 128% | Activity [17]: 122% | Activity [18]: 114% | Activity [19]: 99.5% | Activity [20]: 83.5% | Activity [21]: 99.5% | Activity (Saccharomyces cerevisiae): 95.5% | Papp A→B [22]: > 8 ×10⁻⁶ cm/s | Activity [23]: 92% | Activity [24]: 128% | Activity [25]: 100% | Activity [26]: 108% | Activity [27]: 102% | Activity [28]: 108% | Activity [29]: 97.5% | Activity [30]: 102% | Activity [31]: 114% | Activity [32]: 97% | Activity [33]: 99% | Activity [34]: 94.5% | Activity [35]: 104% | Activity [36]: 96.5% | Activity [37]: 100%
